Experimental data: patent publication US20040167131A1, “Inhibitors of factor Xa and other serine proteases involved in the coagulation cascade” (Pfizer Inc., priority 2002, published 2004)

Columns and labels:
rat = details: arteriovenous shunt and venous stasis models; cited from earlier work
human plasma = assay: Determination of Prothrombin Time (PT); type: biochemical; details: concentration required to increase the clotting time by 2-fold, human tissue thromboplastin
Description: The prothrombin time (PT) is a measure of extrinsic and common pathway factors. In this assays, human tissue thromboplastin is added to human plasma which activates pathway factors, including factor X activation to factor Xa, leading to clot formation. Significant inhibition of factor Xa, by a small molecule inhibitor, will reduce the conversion of prothrombin to thrombin and thereby increase the time to clot formation in this assay. The value 2 X PT is the concentration of the inhibitor required to increase the clotting time by 2-fold.

human factor Xa = target: T1, human factor Xa (Homo sapiens, UniProt P00742); assay: Determination of Factor Xa IC50 (cleavage of fluorogenic substrate F-S2765); type: biochemical; details: 3 pM human factor Xa; read-out: FXa 3 pM IC50
T1 construct: purchased Enzyme Research Laboratories
T1 sequence (P00742 235-488 limits assumed): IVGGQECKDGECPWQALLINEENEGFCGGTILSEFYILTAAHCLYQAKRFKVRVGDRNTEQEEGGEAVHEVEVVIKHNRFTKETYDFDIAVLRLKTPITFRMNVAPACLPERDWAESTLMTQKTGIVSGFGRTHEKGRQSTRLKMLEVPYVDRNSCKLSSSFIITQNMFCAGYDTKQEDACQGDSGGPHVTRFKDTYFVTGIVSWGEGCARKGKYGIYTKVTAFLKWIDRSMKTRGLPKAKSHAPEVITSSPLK
T1 sequence (P00742 41-179 partner limits assumed): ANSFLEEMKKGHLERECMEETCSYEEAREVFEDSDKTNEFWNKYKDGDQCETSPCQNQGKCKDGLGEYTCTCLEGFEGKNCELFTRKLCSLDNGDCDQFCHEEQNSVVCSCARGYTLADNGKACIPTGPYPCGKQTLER
Description: The ability of compounds to act as inhibitors of human factor Xa catalytic activity was assessed by determination of that concentration of test substance that inhibited by 50% (IC50) the ability of human factor Xa to cleave the fluorogenic substrate F-S2765 (N-α-Z-D-Arg-Gly-Arg-pNA HCl, California Peptide Research). […] The IC50 was determined at 3 pM and/or 30 pM concentrations of human factor Xa (Enzyme Research Laboratories). These concentrations were achieved by diluting a stock solution of human factor Xa in the appropriate amount of buffer containing 10 mM HEPES, 150 mM NaCl, and 0.1% BSA at pH 7.4 (HBSA buffer). Accordingly, 73 μL of the factor Xa/buffer solution was added to 2.5 μL of DMSO-reconstituted compound and incubated for 55 minutes at room temperature. After warming to 37° C. for am additional 5 minutes, 50 μL of rewarmed substrate was added and the IC50 determined by monitoring the increase in absorbance at 390 nm excitation/460 nm emission (455 nm cutoff) in a fluorometric plate reader or 30 minutes.

canine coronary artery = canine coronary artery electrolytic lesion model; cited from earlier work
dog = details: adjunct to recombinant tissue plasminogen activator; cited from earlier work
rabbit = rabbit model of venous thrombosis; cited from earlier work

CC(=N)N1CC[C@H](Oc2ccc([C@H](Cc3ccc4ccc(C(=N)N)cc4c3)C(=O)O)cc2)C1 [DX9065a]
inhibition of thrombus formation (rat): inhibition of thrombus formation was achieved at doses that had little effect on APTT

CS(=O)(=O)c1ccccc1-c1ccc(NC(=O)C2(NC(=O)Nc3ccc(Cl)cc3)CCCC2)cc1 [Example 1, 1-[3-(4-Chloro-phenyl)-ureido]-cyclopentanecarboxylic acid (2′-methanesulfonyl-biphenyl-4-yl)-amide]
PT Conc. 2X Prolong. (human plasma): 13.45 µM
IC50 (human factor Xa): 0.038 µM

rTAP: recombinant tick anticoagulant peptide, a protein or polypeptide factor Xa inhibitor (YNRLCIKPRDWIDECDSNEGGERAYFRNGKGGCDSFWICPEDHTGADYYSSYRDCFNACI; UniProt P17726 1-60, looked up)
thrombus mass and time to occlusion (canine coronary artery): reduce thrombus mass and time to occlusion
clot lysis and reocclusion (dog): accelerate the recombinant tissue plasminogen activator mediated clot lysis and prevent acute reocclusion
fibrin deposition (rabbit): reduce fibrin deposition
